Here are results for two compounds from publication PMC5017749, “Preclinical Metabolism, Pharmacokinetics and In Vivo Analysis of New Blood-Brain-Barrier Penetrant Fingolimod Analogues: FTY720-C2 and FTY720-Mitoxy” (PLoS ONE, 2016).

The nature of series [1]: Metabolic stability (intrinsic clearance) in monkey liver microsomes. Particulars: for percent of the remaining compound: after 60 minute incubation. Format: in vitro ADME, monkey (Cynomolgus). As for the experimental part:
(§1) Liver microsomal incubations contained 0.1mg/mL microsomal proteins and 1 μM of FTY720-C2 or FTY720-Mitoxy in 100 mM potassium phosphate buffer (pH 7.4) ± an NADPH regenerating system (3.5 mM glucose 6-phosphate, 1.3 mM NADP^+, and 0.4 units/mL glucose-6-phosphate dehydrogenase). Following incubations, reactions were terminated for analysis after 0, 10, 20, 30, and 60 min by the addition of acetonitrile containing C17 sphingosine (300 ng/mL) as the internal standard. Samples were vigorously mixed and centrifuged at 3,400 rpm for 10 min to pellet precipitated proteins. An aliquot of each supernatant was used for LC/MS analysis, for determination of the remaining FTY720-C2 and FTY720-Mitoxy. Similar incubations were performed using a cocktail solution containing 0.2 μM midazolam and 1 μM diclofenac to determine the metabolic activity of the microsomes as an additional control.
(§2) Samples resulting from liver microsomal incubations were analyzed by LC-MS/MS. Aliquots of the supernatants were injected onto an X-Bridge C18 column (2.1 × 50 mm, 3.5-μm particles) (Waters, Milford, MA), preceded by a SecurityGuard C18 guard column (4.0 × 2.0 mm; Phenomenex Inc.). Separations were accomplished with a gradient of 0.1% acetic acid in water (v/v) versus 0.1% acetic acid in acetonitrile: methanol (75:25, v/v) at a rate of 0.8 mL/min. The eluents were further applied into an equipped API 4000 QTrap mass spectrometer (AB Sciex, Foster City, CA) with electrospray ionization (ESI) interface by two coupled LC-10 AT pumps. Peak area ratios of FTY720-C2 or FTY720-Mitoxy against the C17 sphingosine internal standard were used to determine the amount of parent remaining compared to that at 0 min. The percent of FTY720-C2 or FTY720-Mitoxy remaining was calculated by dividing the peak area ratio obtained at each time point by that obtained at 0 min. The in vitro intrinsic clearance (CLint) was calculated by linear regression of the log percent of compound remaining versus time plots using Microsoft Excel, two independent experiments (n = 2) were performed for each compound and species. Then, the mean and standard deviation (SD), of two values for each condition, were calculated using Microsoft Excel with the “AVERAGE” and “STDEV” functions, respectively.
A general note: Microsomes from liver hold many membrane-bound enzymes, among them those of drug oxidation.

Series [2] can be described thus: Metabolic stability (intrinsic clearance) in mouse liver microsomes. The format is in vitro ADME, mouse (CD-1). Particulars: for percent of the remaining compound: after 60 minute incubation. How it is done:
as §1, §2

For the compound `CCCCCCCCc1ccc(CCC(CO)(CO)NC(=O)CC[P+](c2ccccc2)(c2ccccc2)c2ccccc2)cc1` [FTY720-Mitoxy, N-(1-hydroxy-2-(hydroxymethyl)-4-(4-octylphenyl)butan-2-yl)-3’-triphenylphosphoniumpropanamide], the “intrinsic clearance interpreted in words” value in series [1] (monkey liver microsomes) was “high”; in series [2] (mouse liver microsomes), “low”. For the same compound, the “Clint (intrinsic clearance)” value is 135.3 ± 10.61 µL/min/mg in series [1] (monkey liver microsomes, 0.1 mg/mL protein, 1 μM, mean of two determinations) and 1.75 ± 1.34 µL/min/mg in series [2] (mouse liver microsomes, 0.1 mg/mL protein, 1 μM, mean of two determinations). In addition, the “percent of the remaining compound” value was found to be 1.4 ± 0.3% in series [1] (monkey liver microsomes) and 82.5 ± 16.3% in series [2] (mouse liver microsomes). In addition, the microsomal CLint at 1 μM in series [1] (monkey, liver microsomes, pH 7.4, monkey liver microsomes, 0.1 mg/mL protein, 1 μM, mean of two determinations) was 135 µL/min/mg; in series [2] (CD-1, mouse, liver microsomes, pH 7.4, mouse liver microsomes, 0.1 mg/mL protein, 1 μM, mean of two determinations) it was 1.8 µL/min/mg.
Take `CCCCCCCCc1ccc(CCC(CO)(CO)NC(C)=O)cc1` [FTY720-C2, N-(1-hydroxy-2-(hydroxymethyl)-4-(4-octylphenyl)butan-2-yl)acetamide]: the “intrinsic clearance interpreted in words” value in series [1] (monkey liver microsomes) and in series [2] (mouse liver microsomes) was “moderate” each time. Moreover, the “percent of the remaining compound” value in series [1] (monkey liver microsomes) is 30.0 ± 0.3%; in series [2] (mouse liver microsomes), 29.5 ± 2.1%. The intrinsic metabolic clearance (microsomal CLint) at 1 μM in series [1] (pH 7.4, monkey liver microsomes, 0.1 mg/mL protein, 1 μM, mean of two determinations) is 20.2 µL/min/mg; in series [2] (CD-1, pH 7.4, mouse liver microsomes, 0.1 mg/mL protein, 1 μM, mean of two determinations), 22.5 ± 2.12 µL/min/mg.

Usually microsomal CLint stands for the capacity of the preparation to metabolise the compound, expressed as a volume cleared per time.
